Laboratory results: ChEMBL document CHEMBL4190316, “Synthesis and biological evaluation of 4-biphenylamino-5-halo-2(5H)-furanones as potential anticancer agents” (Eur J Med Chem, 2017)
Activity calls are given as the source filed them. No cut-off for these calls is given here.

Tests used:
C6 = assay: Cytotoxicity against rat C6 cells assessed as reduction in cell viability after 72 hrs by MTT assay; assay type: functional, cell-based; details: C6, 72 h
HaCaT = assay: Cytotoxicity against human HaCaT cells assessed as reduction in cell viability after 72 hrs by MTT assay; assay type: cell-based
CNE = assay: Cytotoxicity against human CNE1 cells assessed as reduction in cell viability after 72 hrs by MTT assay; assay type: functional, cell-based
[1] = Cytotoxicity against human NCI-EC1 cells assessed as reduction in cell viability after 72 hrs by MTT assay; assay type: functional, cell-based
MDA-MB-231 = assay: Cytotoxicity against human MDA-MB-231 cells assessed as reduction in cell viability after 72 hrs by MTT assay; assay type: functional, cell-based; details: MDA-MB-231, 72 h
MCF7 [2] = assay: Cytotoxicity against human MCF7 cells assessed as reduction in cell viability after 72 hrs by MTT assay; assay type: functional, cell-based; details: MCF7, 72 h
HepG2 = assay: Cytotoxicity against human HepG2 cells assessed as reduction in cell viability after 72 hrs by MTT assay; assay type: functional, cell-based; details: HepG2, 72 h
[3] = Octanol-water partition coefficient, log P of the compound at 10 mM after 24 hrs by UV-vis spectroscopic method; assay type: physicochemical
MCF7 [4] = assay: Cell cycle arrest in human MCF7 cells assessed as accumulation at G1 phase at 10 uM after 72 hrs by propidium iodide staining based flow cytometry (reference value: 66.42%); assay type: functional
MCF7 [5] = assay: Cell cycle arrest in human MCF7 cells assessed as accumulation at G1 phase at 20 uM after 72 hrs by propidium iodide staining based flow cytometry (reference value: 66.42%); assay type: functional
MCF7 [6] = assay: Cell cycle arrest in human MCF7 cells assessed as accumulation at G1 phase at 40 uM after 72 hrs by propidium iodide staining based flow cytometry (reference value: 66.42%); assay type: functional
MCF7 [7] = assay: Cell cycle arrest in human MCF7 cells assessed as accumulation at G2/M phase at 10 uM after 72 hrs by propidium iodide staining based flow cytometry (reference value: 17.99%); assay type: functional
MCF7 [8] = assay: Cell cycle arrest in human MCF7 cells assessed as accumulation at G2/M phase at 20 uM after 72 hrs by propidium iodide staining based flow cytometry (reference value: 17.99%); assay type: functional
MCF7 [9] = assay: Cell cycle arrest in human MCF7 cells assessed as accumulation at G2/M phase at 40 uM after 72 hrs by propidium iodide staining based flow cytometry (reference value: 17.99%); assay type: functional
MCF7 [10] = assay: Cell cycle arrest in human MCF7 cells assessed as accumulation at S phase at 10 uM after 72 hrs by propidium iodide staining based flow cytometry (reference value: 15.59%); assay type: functional
MCF7 [11] = assay: Cell cycle arrest in human MCF7 cells assessed as accumulation at S phase at 20 uM after 72 hrs by propidium iodide staining based flow cytometry (reference value: 15.59%); assay type: functional
MCF7 [12] = assay: Cell cycle arrest in human MCF7 cells assessed as accumulation at S phase at 40 uM after 72 hrs by propidium iodide staining based flow cytometry (reference value: 15.59%); assay type: functional
MCF7 [13] = assay: Cell cycle arrest in human MCF7 cells assessed as accumulation at sub-G1 phase at 10 to 40 uM after 24 to 72 hrs by propidium iodide staining based flow cytometry; assay type: functional
MCF7 [14] = assay: Cell cycle arrest in human MCF7 cells assessed as accumulation at G1 phase at 10 uM after 24 hrs by propidium iodide staining based flow cytometry (reference value: 69.92%); assay type: functional
MCF7 [15] = assay: Cell cycle arrest in human MCF7 cells assessed as accumulation at G1 phase at 20 uM after 24 hrs by propidium iodide staining based flow cytometry (reference value: 69.92%); assay type: functional
MCF7 [16] = assay: Cell cycle arrest in human MCF7 cells assessed as accumulation at G1 phase at 40 uM after 24 hrs by propidium iodide staining based flow cytometry (reference value: 69.92%); assay type: functional
MCF7 [17] = assay: Cell cycle arrest in human MCF7 cells assessed as accumulation at G2/M phase at 10 uM after 24 hrs by propidium iodide staining based flow cytometry (reference value: 6.91%); assay type: functional
MCF7 [18] = assay: Cell cycle arrest in human MCF7 cells assessed as accumulation at G2/M phase at 20 uM after 24 hrs by propidium iodide staining based flow cytometry (reference value: 6.91%); assay type: functional
MCF7 [19] = assay: Cell cycle arrest in human MCF7 cells assessed as accumulation at G2/M phase at 40 uM after 24 hrs by propidium iodide staining based flow cytometry (reference value: 6.91%); assay type: functional
MCF7 [20] = assay: Cell cycle arrest in human MCF7 cells assessed as accumulation at S phase at 10 uM after 24 hrs by propidium iodide staining based flow cytometry (reference value: 23.16%); assay type: functional
MCF7 [21] = assay: Cell cycle arrest in human MCF7 cells assessed as accumulation at S phase at 20 uM after 24 hrs by propidium iodide staining based flow cytometry (reference value: 23.16%); assay type: functional
MCF7 [22] = assay: Cell cycle arrest in human MCF7 cells assessed as accumulation at S phase at 40 uM after 24 hrs by propidium iodide staining based flow cytometry (reference value: 23.16%); assay type: functional
Quadruplex DNA [23] = assay: Effect on conformation of c-Myc G-quadruplex DNA (unknown origin) at 1 mM measured every 3 mins by CD spectroscopic analysis; assay type: nucleic-acid assay
MCF7 [24] = assay: Induction of apoptosis in human MCF7 cells assessed as live cells at 10 uM after 72 hrs by Annexin-V/PI staining based flow cytometry (reference value: 97.7%); assay type: functional
MCF7 [25] = assay: Induction of apoptosis in human MCF7 cells assessed as live cells at 20 uM after 72 hrs by Annexin-V/PI staining based flow cytometry (reference value: 97.7%); assay type: functional
MCF7 [26] = assay: Induction of apoptosis in human MCF7 cells assessed as live cells at 40 uM after 72 hrs by Annexin-V/PI staining based flow cytometry (reference value: 97.7%); assay type: functional
MCF7 [27] = assay: Induction of apoptosis in human MCF7 cells assessed as early apoptotic cells at 10 uM after 72 hrs by Annexin-V/PI staining based flow cytometry (reference value: 0.28%); assay type: functional
MCF7 [28] = assay: Induction of apoptosis in human MCF7 cells assessed as early apoptotic cells at 20 uM after 72 hrs by Annexin-V/PI staining based flow cytometry (reference value: 0.28%); assay type: functional
MCF7 [29] = assay: Induction of apoptosis in human MCF7 cells assessed as early apoptotic cells at 40 uM after 72 hrs by Annexin-V/PI staining based flow cytometry (reference value: 0.28%); assay type: functional
MCF7 [30] = assay: Induction of apoptosis in human MCF7 cells assessed as late apoptotic cells at 10 uM after 72 hrs by Annexin-V/PI staining based flow cytometry (reference value: 0.60%); assay type: functional
MCF7 [31] = assay: Induction of apoptosis in human MCF7 cells assessed as late apoptotic cells at 20 uM after 72 hrs by Annexin-V/PI staining based flow cytometry (reference value: 0.60%); assay type: functional
MCF7 [32] = assay: Induction of apoptosis in human MCF7 cells assessed as late apoptotic cells at 40 uM after 72 hrs by Annexin-V/PI staining based flow cytometry (reference value: 0.60%); assay type: functional
MCF7 [33] = assay: Induction of apoptosis in human MCF7 cells assessed as necrotic cells at 10 uM after 72 hrs by Annexin-V/PI staining based flow cytometry (reference value: 1.36%); assay type: functional
MCF7 [34] = assay: Induction of apoptosis in human MCF7 cells assessed as necrotic cells at 20 uM after 72 hrs by Annexin-V/PI staining based flow cytometry (reference value: 1.36%); assay type: functional
MCF7 [35] = assay: Induction of apoptosis in human MCF7 cells assessed as necrotic cells at 40 uM after 72 hrs by Annexin-V/PI staining based flow cytometry (reference value: 1.36%); assay type: functional
MCF7 [36] = assay: Induction of apoptosis in human MCF7 cells assessed as live cells at 10 uM after 24 hrs by Annexin-V/PI staining based flow cytometry (reference value: 94.88%); assay type: functional
MCF7 [37] = assay: Induction of apoptosis in human MCF7 cells assessed as live cells at 20 uM after 24 hrs by Annexin-V/PI staining based flow cytometry (reference value: 94.88%); assay type: functional
MCF7 [38] = assay: Induction of apoptosis in human MCF7 cells assessed as live cells at 40 uM after 24 hrs by Annexin-V/PI staining based flow cytometry (reference value: 94.88%); assay type: functional
MCF7 [39] = assay: Induction of apoptosis in human MCF7 cells assessed as early apoptotic cells at 10 uM after 24 hrs by Annexin-V/PI staining based flow cytometry (reference value: 0.13%); assay type: functional
MCF7 [40] = assay: Induction of apoptosis in human MCF7 cells assessed as early apoptotic cells at 20 uM after 24 hrs by Annexin-V/PI staining based flow cytometry (reference value: 0.13%); assay type: functional
MCF7 [41] = assay: Induction of apoptosis in human MCF7 cells assessed as early apoptotic cells at 40 uM after 24 hrs by Annexin-V/PI staining based flow cytometry (reference value: 0.13%); assay type: functional
MCF7 [42] = assay: Induction of apoptosis in human MCF7 cells assessed as late apoptotic cells at 10 uM after 24 hrs by Annexin-V/PI staining based flow cytometry (reference value: 0.96%); assay type: functional
MCF7 [43] = assay: Induction of apoptosis in human MCF7 cells assessed as late apoptotic cells at 20 uM after 24 hrs by Annexin-V/PI staining based flow cytometry (reference value: 0.96%); assay type: functional
MCF7 [44] = assay: Induction of apoptosis in human MCF7 cells assessed as late apoptotic cells at 40 uM after 24 hrs by Annexin-V/PI staining based flow cytometry (reference value: 0.96%); assay type: functional
MCF7 [45] = assay: Induction of apoptosis in human MCF7 cells assessed as necrotic cells at 10 uM after 24 hrs by Annexin-V/PI staining based flow cytometry (reference value: 4.03%); assay type: functional
MCF7 [46] = assay: Induction of apoptosis in human MCF7 cells assessed as necrotic cells at 20 uM after 24 hrs by Annexin-V/PI staining based flow cytometry (reference value: 4.03%); assay type: functional
MCF7 [47] = assay: Induction of apoptosis in human MCF7 cells assessed as necrotic cells at 40 uM after 24 hrs by Annexin-V/PI staining based flow cytometry (reference value: 4.03%); assay type: functional
Quadruplex DNA [48] = assay: Binding affinity to c-Myc G-quadruplex DNA (unknown origin) at 20 uM incubated for 3 mins by electronic absorption spectra method; assay type: nucleic-acid assay
Quadruplex DNA [49] = assay: Stabilization of c-Myc G-quadruplex DNA in human MCF7 cells assessed as downregulation of c-Myc protein expression after 72 hrs by Western blot method; assay type: cell-based
Quadruplex DNA [50] = assay: Binding affinity to c-Myc G-quadruplex DNA (unknown origin) assessed as hypochromism at 20 uM incubated for 3 mins by electronic absorption spectra method; assay type: nucleic-acid assay
MCF7 [51] = assay: Cell cycle arrest in human MCF7 cells assessed as accumulation at G2/M phase after 72 hrs by propidium iodide staining based flow cytometry; assay type: functional
Quadruplex DNA [52] = assay: Binding affinity to c-Myc G-quadruplex DNA (unknown origin) at 20 uM incubated for 2 mins by fluorescence emission spectra method; assay type: nucleic-acid assay

COC1OC(=O)C(Br)=C1Nc1ccc(-c2ccccc2)cc1 (stereo not drawn)
IC50 (C6): 37.9 µM
IC50 (HaCaT): 67.5 µM
IC50 (CNE): 52.6 µM
IC50 [1]: 48 µM
IC50 (MDA-MB-231): 97.5 µM
IC50 (MCF7 [2]): 37.8 µM
IC50 (HepG2): 45.2 µM
logP at 24 h, 10000 µM [3]: 1.33

CC(=O)OC1OC(=O)C(Br)=C1Nc1ccc(-c2ccc(N)cc2)cc1 (stereo not drawn)
IC50 (C6): 15.4 µM
IC50 (HaCaT): > 100 µM
IC50 (CNE): 49.4 µM
IC50 [1]: 55.1 µM
IC50 (MDA-MB-231): 33.7 µM
IC50 (MCF7 [2]): 11.8 µM
IC50 (HepG2): 35.3 µM
logP at 24 h, 10000 µM [3]: 1.76
Activity (MCF7 [4]): 63.91%
Activity (MCF7 [5]): 61.38%
Activity (MCF7 [6]): 44.37%
Activity (MCF7 [7]): 20.53%
Activity (MCF7 [8]): 23.44%
Activity (MCF7 [9]): 35.13%
Activity (MCF7 [10]): 15.56%
Activity (MCF7 [11]): 15.18%
Activity (MCF7 [12]): 20.5%
Activity (MCF7 [13]): inactive
Activity (MCF7 [14]): 66.44%
Activity (MCF7 [15]): 68.3%
Activity (MCF7 [16]): 55.63%
Activity (MCF7 [17]): 9.61%
Activity (MCF7 [18]): 10.59%
Activity (MCF7 [19]): 17.92%
Activity (MCF7 [20]): 23.95%
Activity (MCF7 [21]): 21.11%
Activity (MCF7 [22]): 26.45%
Activity (Quadruplex DNA [23]): inactive
Activity (MCF7 [24]): 95.8%
Activity (MCF7 [25]): 96.19%
Activity (MCF7 [26]): 93.39%
Activity (MCF7 [27]): 0.32%
Activity (MCF7 [28]): 0.55%
Activity (MCF7 [29]): 0.47%
Activity (MCF7 [30]): 0.67%
Activity (MCF7 [31]): 0.67%
Activity (MCF7 [32]): 1.19%
Activity (MCF7 [33]): 3.2%
Activity (MCF7 [34]): 2.59%
Activity (MCF7 [35]): 4.94%
Activity (MCF7 [36]): 96.89%
Activity (MCF7 [37]): 95.21%
Activity (MCF7 [38]): 95.28%
Activity (MCF7 [39]): 0.16%
Activity (MCF7 [40]): 0.13%
Activity (MCF7 [41]): 4.08%
Activity (MCF7 [42]): 0.13%
Activity (MCF7 [43]): 0.07%
Activity (MCF7 [44]): 0.5%
Activity (MCF7 [45]): 2.82%
Activity (MCF7 [46]): 4.59%
Activity (MCF7 [47]): 0.14%
K (Quadruplex DNA [48]): 1.6 ×10⁷ /M
Activity (Quadruplex DNA [49]): Dose-dependent effect
Activity (Quadruplex DNA [50]): 28%
Activity (MCF7 [51]): Dose-dependent effect
Activity (Quadruplex DNA [52]): Active

COC1OC(=O)C(Br)=C1Nc1ccc(-c2ccc(N)cc2)cc1 (stereo not drawn)
IC50 (C6): 64.2 µM
IC50 (HaCaT): 69.6 µM
IC50 (CNE): 68.6 µM
IC50 [1]: > 100 µM
IC50 (MDA-MB-231): > 100 µM
IC50 (MCF7 [2]): 59.6 µM
IC50 (HepG2): 82.3 µM
logP at 24 h, 10000 µM [3]: 1.46
